Experimental data from patent US20240200022A1, “METHODS AND SYSTEMS FOR THE CULTURE OF CELLS AT LIQUID-LIQUID INTERFACES” (QUEEN MARY UNIVERSITY OF LONDON, priority 2017, published 2024).

Key:
Type in all cases: cell-based, human
[1] = system: HaCaT cells; experiment: HaCaT cell spreading assay on oil interfaces (cell area from phalloidin staining); conditions: HaCaT on BSA interfaces, Novec 7500+PFBC; blebbistatin 10 μM, Y27632 10 μM, Cytochalasin D 1 μM
Method: Generation of fluorinated oil droplet substrates for cell culture. Thin glass slides (25×60 mm, VWR) were plasma oxidized for 10 minutes and placed into a staining jar. Toluene (1 mL, Sigma-Aldrich) and 30 μL trichloro (1H, 1H, 2H, 2H-perfluorooctyl) silane (Sigma-Aldrich) were added in a glass vial. The staining jar containing the glass slides and the glass vial with the silane solution were placed into a desiccator under vacuum for 5 min and then left under reduced atmosphere but sealed overnight. The fluorinated glass slides were cut into chips (1×1 cm) and placed into a 24 well plate. After sterilisation with 70% ethanol, the wells were washed (twice) and then filled with 2 mL PBS (pH 7.4, except when specified, for the adsorption of poly(L-lysine) at pH 10.5). 100 tL droplets of fluorinated oil (Novec 7500) with fluorinated surfactant (2,3,4,5,6-Pentafluorobenzoyl chloride) at specified concentrations (see specific experiments, but often 0.01 mg/mL) were deposited on top of the glass slide and formed a fluorinated oil droplet spreading over the entire substrate. […] For the deposition of BSA, a 10 μL BSA solution (100 mg/mL) was added into PBS, to make a final concentration of 1 mg/mL, and incubated for 1 h.
HaCaT keratinocyte cell line culture and seeding. Human keratinocyte HaCaT cells were cultured in DMEM (Thermofisher Scientific) containing 10% foetal bovine serum (FBS, Labtech), 1% L-Glutamine (200 mM) and 1% Penicillin-Streptomycin (5,000 U/mL). […] For cell spreading assays HaCaT cells were harvested and seeded onto fluorinated droplets at a density of 25,000 per well (13,000 per cm^2).
Immuno-fluorescence microscopy and data analysis. Fluorescence microscopy images were acquired with a Leica DMI4000B fluorescence microscopy (CTR4000 lamp; 63×1.25 NA, oil lens; 10×0.3 NA lens; 2.5×0.07 NA lens; DFC300FX camera). […] To determine adhesion cell areas, images were analyzed by thresholding and watershedding fluorescence images of the cytoskeleton (phalloidin stained). […]

[2] = system: primary keratinocytes; experiment: Keratinocyte cell sheet formation on flat fluorinated oil interfaces; conditions: FAD medium containing ROCK inhibitor, 10 μM; PLL-functionalised fluorinated oil
Description: Keratinocyte culture and seeding.
Immunofluorescence staining and antibodies.
Immuno-fluorescence microscopy and data analysis. Fluorescence microscopy images were acquired with a Leica DMI4000B fluorescence microscopy (CTR4000 lamp; 63×1.25 NA, oil lens; 10×0.3 NA lens; 2.5×0.07 NA lens; DFC300FX camera). Confocal microscopy images were acquired with a Leica TCS SP2 confocal and multiphoton microscope (X-Cite 120 LED lamp; 63×1.40-0.60 NA, oil lens; 10×0.3 NA lens; DFC420C CCD camera). To determine cell densities per mm^2, cell counting was carried out by thresholding and watershedding nuclei images in ImageJ. […] To determine adhesion cell areas, images were analyzed by thresholding and watershedding fluorescence images of the cytoskeleton (phalloidin stained). The area of cell clusters was removed when analysing results.

[3] = system: MSCs; experiment: MSC culture on fluorinated oils conditioned with culture medium only; conditions: after 7 days of culture; no protein nanosheets deposition, conditioning with cell culture medium
Method: (§1) Generation of liquid-liquid (FC-40) interfaces for cell culture. 24 well plates were plasma oxidized using a plasma coater (Diener, 100% intensity) for 10 minutes. 500 mL ethanol (VWR chemicals), 10 mL trimethylamine (Sigma-Aldrich) and 10 mL of the desired silane (triethoxy(octyl)silane (Sigma-Aldrich) to prepare interfaces with liquid PDMS, or trichloro (1H, 1H, 2H, 2H-perfluorooctyl) silane (Sigma-Aldrich) for the fluorinated oil) were added into each well. Ethanol was added in between wells to slow down evaporation and parafilm was used to seal the well plate lid. After incubating for 24 h, the wells were washed in a sterile environment with ethanol (twice) and ddH2O (three times). 500 μL FC-40 (Sigma) was added in the fluorophilic 24 well plate to form the bottom liquid layer, 2 mL of MSC growth medium was directly added on the FC-40 layer, 5K cells were seeded in each well.

[4] = system: HaCaT cells; experiment: HaCaT cell proliferation on liquid substrates (Hoechst staining); conditions: fluorinated oil supplemented with the surfactant
Method: as §1, with “liquid-liquid” for “liquid-liquid (FC-40)”, “[…]” for “mL”, “PDMS” for “PDMS,”, “cover.” for “lid.”, “500 μL FC-40 (Sigma) was added in the fluorophilic 24 well plate to form the bottom liquid layer, 2 mL of MSC growth medium was directly added on the FC-40 layer, 5K cells were seeded in each well.” left out
Hoechst staining and LIVE/DEAD cell viability assay. Cell proliferation was assessed via Hoechst staining. […] Viability of HaCaT cells on fluorinated oil interfaces was quantified by LIVE/DEAD viability/cytotoxicity assay using a kit supplied by Thermofisher Scientific. In brief, HaCaT cells were incubated in DMEM with 2 μM Calcein AM and 4 μM Ethidium homodimer for 30 min. stained cells were imaged using a Leica DM14000 fluorescence microscopy (see below). The percentage of viable cells was calculated by counting the number of green (live) cells and dividing by the total number of cells (including dead cells).
Immuno-fluorescence microscopy and data analysis. […]

Structure (SMILES): C[C@@H](N)[C@H]1CC[C@H](C(=O)Nc2ccncc2)CC1 [Y27632]
- cell spreading on oil [1]: further decreased
- integrity of keratinocyte cell sheets on oil [2]: preserved their integrity

Structure (SMILES): CCOC(F)(C(F)(F)C(F)(F)C(F)(F)F)C(F)(C(F)(F)F)C(F)(F)F (stereo not drawn) [Novec 7500, hexane, 3-ethoxy-1,1,1,2,3,4,4,5,5,6,6,6-dodecafluoro-2-(trifluoromethyl)]
- MSC proliferation [3]: did not lead to any significant cell proliferation

Structure (SMILES): Cc1ccc2c(c1)C(=O)C1(O)CCN(c3ccccc3)C1=N2 (stereo not drawn) [Blebbistatin, blebbistatin]
- cell spreading on oil [1]: slight increase

Structure (SMILES): C=C1[C@@H](C)[C@H]2[C@H](Cc3ccccc3)NC(=O)[C@]23[C@H](OC(C)=O)/C=C/[C@@](C)(O)C(=O)[C@@H](C)C/C=C/[C@H]3[C@@H]1O [cytochalasin D, Cytochalasin D]
- cell spreading on oil [1]: further decreased

Structure (SMILES): O=C(Cl)c1c(F)c(F)c(F)c(F)c1F [pentafluorobenzoyl chloride, 2,3,4,5,6-pentafluorobenzoyl chloride]
- HaCaT cell proliferation at the surface of fluorinated oil [4]: proliferated
